Test results taken from patent US20110104695A1, “METHODS OF PREDICTING THERAPEUTIC EFFICACY OF CANCER THERAPY” (Epigenomics AG, priority 2009, published 2011).

Key:
SW480 cells = assay: Cell survival after drug exposure (MTT assay), transfected SW480 cells
colorectal cancer = assay: Treatment response in colorectal cancer patient cohorts (RECIST or histology); type: in vivo, human; conditions: Cohort IV (München), primary rectal cancer, chemoradiotherapy (intravenous 5-FU and 45.0 Gy), 68 patients, histological criteria
Procedure: Samples were obtained from patients undergoing colorectal cancer surgery or chemotherapy at the University Hospitals in Munich, Mannheim, Bochum, Berlin and Dresden (all Germany). Tissues were obtained during resection of the primary tumor or by biopsy. […] Response to chemotherapy was assessed by RECIST criteria, response to chemoradiotherapy by histology as previously described.

TFAP2E [1] = assay: MethyLight analysis of TFAP2E methylation in CRC cell lines; type: cell-based, human; conditions: all CRC cell lines; after 5-azacytidine treatment
Procedure: (§1) Colon cancer cell lines LOVO and DLD-1 were obtained from the Deutsche Sammlung von Mikroorganismen und Zellkulturen GmbH (Braunschweig, Germany). SW480, HT-29, HCT-116 and CACO-2 colon cancer cell lines were obtained from ATCC (Washington, D.C., USA). Cells were cultured in 90% DMEM medium supplemented with 10% fetal bovine serum and 2 mM L-glutamine (Invitrogen, Karslruhe, Germany). CACO-2 cells were maintained in 80% DMEM with 20% FBS. Cells were seeded at a density of 1×10^6 cells/60-mm dish, after twenty-four hours incubated with 5-aza-cytidine (final concentration 10 μmol/L; Sigma, Munich, Germany) or the same amount of DMSO as control. Culture medium was changed daily for 3 days with recurrent 5-aza-2-deoxycytidine additions. After 3 days, the cells were harvested for total RNA extraction with the RNeasy Total RNA Mini Kit (Qiagen, Hilden, Germany).
Primers for methylated TFAP2E covered CpGs in the second CpG island (FIG. 5). […]
(§2) Genomic DNA was treated with the Epitect Bisulfite Conversion Kit (Qiagen, Hilden, Germany) according to the manufacturer's instructions and then analyzed using the MethyLight technique or MS-HRM as previously described. Cutoff values giving the best discrimination between non-neoplastic mucosa and tumor samples were determined by receiver operating characteristic (ROC) analysis. […]

TFAP2E [2] = assay: TFAP2E mRNA expression by RT-PCR in CRC cell lines after drug treatment; type: cell-based, human
Procedure: as §1, with “Cells were seeded at a density of 1×10^6 cells/60-mm dish, after twenty-four hours incubated with 5-aza-cytidine (final concentration 10 μmol/L; Sigma, Munich, Germany) or the same amount of DMSO as control.” left out
The RNA and DNA extraction from cell lines or 10-25 mg of frozen tissue samples was carried out using the RNeasy Total RNA Mini Kit or the QIAmp DNA Mini Kit (Qiagen, Hilden, Germany) respectively, using the manufacturer's instructions.
Genomic DNA was treated with the Epitect Bisulfite Conversion Kit (Qiagen, Hilden, Germany) according to the manufacturer's instructions and then analyzed using the MethyLight technique or MS-HRM as previously described. Cutoff values giving the best discrimination between non-neoplastic mucosa and tumor samples were determined by receiver operating characteristic (ROC) analysis. The expression analysis of the mRNA was performed by RT-PCR with the Verso cDNA Kit (Thermo Fischer, Darmstadt, Germany) according to the manufacturer's instructions.

DKK4 = DKK4 mRNA expression in untransfected CRC cell lines; type: cell-based, human; conditions: SW480 and CACO-2 cells; after 5-azacytidine treatment
Procedure: as §1, §2

## O=c1[nH]cc(F)c(=O)[nH]1 [5-FU, 5-fluorouracil]
SW480 cells; SW480 transfected with both pTFAP2E and pcDNA3-Dkk4
  responsiveness to 5-FU: intermediate responsiveness
SW480 cells; SW480 transiently transfected with pTFAP2E, 5-FU 50 μg/ml, after 2 days
  decrease in survival compared to controls: about 20%
SW480 cells; SW480 transiently transfected with pcDNA3-Dkk4, 5-FU 50 μg/ml, after 2 days
  increase in survival compared to controls: about 10%
Colorectal cancer
  patients classified as responders: 47%

## Nc1ncn([C@@H]2O[C@H](CO)[C@@H](O)[C@H]2O)c(=O)n1 [5-azacytidine]
TFAP2E [1]
  TFAP2E methylation (MethyLight): declined
TFAP2E [2]; CACO-2 and SW480 cells, 5-aza-cytidine 10 μmol/L, 3 days
  TFAP2E expression (RT-PCR): showed expression after 5-aza-cytidine treatment only
DKK4
  DKK4 expression: lost

## CC(/C=C/C(=O)NO)=C\[C@@H](C)C(=O)c1ccc(N(C)C)cc1 [Trichostatin A]
TFAP2E [2]; CACO-2 cells, Trichostatin A treatment
  TFAP2E expression after treatment: weak expression
TFAP2E [2]; CRC cell lines except CACO-2, Trichostatin A treatment
  TFAP2E mRNA levels: no effect
